Reference: PubChem BioAssay AID463199 (Broad Institute, 2010)
Calls of active or inactive are those of the source.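 How the source made its calls: active means AC50, the dose giving half-maximal effect, exceeds a fixed cutoff for a compound that rescues yeast growth under heat; inactive means the rest, inconclusive results apart.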 Where a SMILES comes first, the peptide text is derived from it.

system: S. cerevisiae Burl-1 ts mutant growth, BacTiter-Glo, 38.5C 24 h; experiment: restored growth of temperature-sensitive Burl-1 yeast – whole organism, S. cerevisiae, Burl-1 ts mutant, luminescence, counter-screen for SUMOylation pathway inhibitor project, dose response (AID 463199)

SMILES | AC50
CCCCSCCCNC(=O)Nc1cccc(OC)c1 | > 42 µM (inactive)
CS(=O)(=O)NCc1ccc(C(=O)NC2CCCCC2)cc1 | > 42 µM (inactive)
Cc1cc(O)c(/C=N/Nc2cccc(Cl)c2)c(=O)o1 | > 42 µM (inactive)
O=C(Nc1ccc(Cl)cc1Cl)c1cccc(N2C(=O)C=CC2=O)c1 | > 42 µM (inactive)
Cc1c(Cl)cccc1NC(=S)NCCCN(C)C | > 42 µM (inactive)
O=C(OCCCCOC(=O)c1ccccc1)c1ccccc1 | > 42 µM (inactive)
O=C(Nc1cccc(C(=O)Nc2ccc(F)cc2F)c1)c1ccccc1 | > 42 µM (inactive)
Cc1ccccc1-c1nnnn1C1CCS(=O)(=O)C1 (stereo unspecified) | > 42 µM (inactive)
Cc1ccc(S(=O)(=O)NCC(C)n2cncn2)cc1 (stereo unspecified) | > 42 µM (inactive)
Oc1c(Br)cc(Br)cc1/C=N/n1c(-c2ccccc2)n[nH]c1=S | > 42 µM (inactive)
Cc1nc(CSc2nnc3scc(-c4ccccc4)n23)cs1 | > 42 µM (inactive)
COc1cc(/C=N/NC2=NS(=O)(=O)c3ccccc32)cc(OC)c1OC | > 42 µM (inactive)
COc1ccc(NC(=O)c2ccc(S(=O)(=O)N(C)c3ccccc3)cc2)cn1 | > 42 µM (inactive)
CN1C(=O)C(=Cc2ccc(N3CCCCC3)o2)C(=O)N(C)C1=S | > 42 µM (inactive)
Cc1ccccc1C(=O)NN(C)c1nc2ccccc2nc1C(F)(F)F | > 42 µM (inactive)
O=C1C2CC=C(Cl)CC2C(=O)N1c1ncn[nH]1 (stereo unspecified) | > 42 µM (inactive)
COc1ccc([N+](=O)[O-])cc1NC(=O)C1CCCN1S(=O)(=O)c1cccs1 (stereo unspecified) | > 42 µM (inactive)
O=C1CC(c2c[nH]c3ccccc23)C(=O)N1c1ccccc1 (stereo unspecified) | > 42 µM (inactive)
O=C(c1cc2ccccc2o1)N1CCCC1 | > 42 µM (inactive)
COCCNC(=O)C(=O)NCC1OCCN1C(=O)c1ccc(Cl)cc1 (stereo unspecified) | > 42 µM (inactive)
COc1ccc2oc(=O)c(C(=O)NCc3ccco3)cc2c1 | 15.5 µM
COc1ccc(NC(=S)Nc2ccccc2OC)c(OC)c1 | > 42 µM (inactive)
CC1=CC(C)(C)N2C(=O)C3(NCCc4c3[nH]c3ccccc43)c3cc(C)cc1c32 (stereo unspecified) | > 42 µM (inactive)
Cc1cc(C)c(NC(=O)CCN2CCN(Cc3ccccc3)CC2)c(C)c1 | > 42 µM (inactive)
Cc1ccc2nc3c(cc(C(=O)NCCN4CCOCC4)c(=N)n3CCCN3CCOCC3)c(=O)n2c1 | > 42 µM (inactive)
CCc1ccc(NC(=S)N(Cc2cccc(Br)c2)CC2CCC(C(=O)O)CC2)cc1 (stereo unspecified) | > 42 µM (inactive)

SMILES | AC50
COc1cccc(OC)c1OCC(O)CN1CCN(c2ccccc2)CC1 (stereo unspecified) | > 42 µM (inactive)
Nc1nnnn1CC(=O)N/N=C/c1cccs1 | > 42 µM (inactive)
Cc1ccc(-c2nc(CS(=O)(=O)CC(=O)NC3CCCCC3C)c(C)o2)cc1 (stereo unspecified) | > 42 µM (inactive)
Cc1ccc(SCCC(=O)Nc2ccc(OCc3ccccc3)cc2)cc1 | > 42 µM (inactive)
Cc1occc1-c1nnc(SCC(=O)N2CCN(c3ccccc3)CC2)n1C | > 42 µM (inactive)
COc1ccc(NC(=O)c2ccc(-n3cncn3)c([N+](=O)[O-])c2)cc1 | > 21 µM (inactive)
COc1cc(/C=N/NC(=S)NCc2ccco2)cc(OC)c1OC | > 42 µM (inactive)
O=c1c2ccccc2nc(SCc2nnc(-c3ccccc3)o2)n1-c1ccc(F)cc1F | > 42 µM (inactive)
CCc1ccc2c(c1)C(c1ccc([N+](=O)[O-])cc1)=NNC(c1ccc(C)cc1)=N2 | > 42 µM (inactive)
O=S1(=O)NC(c2ccccc2)CC(CC2CCCCC2)O1 (stereo unspecified) | > 42 µM (inactive)
Cc1cc(NC(=O)CCC(=O)N(c2cccnc2)C(C(=O)NC2CCCC2)c2ccccc2)no1 (stereo unspecified) | > 42 µM (inactive)
O=c1c2c(ncn1Cc1ccccc1)nc1n2CCC1 | > 42 µM (inactive)
CCCCCCCN1C(Nc2ccccc2)=NC[C@@H]1CC(C)C | > 21 µM (inactive)
CCCCNS(=O)(=O)c1ccc(OC)cc1 | > 42 µM (inactive)
Cc1ccccc1NC(=O)c1ccccc1NC(=O)c1ccco1 | > 42 µM (inactive)
Cc1ccc2nc(NC(=O)C3CCN(S(=O)(=O)c4cccnc4)CC3)sc2c1 | > 42 µM (inactive)
CSc1nc2ccc(NC(=O)c3c(F)cccc3F)cc2s1 | > 42 µM (inactive)
COc1ccc(C(=O)NC(=S)Nc2ccc(CN3CCCCC3)cc2)cc1Cl | > 42 µM (inactive)
CC(C)C1=CC(=Nc2ccc(S(N)(=O)=O)cc2)C=C(C(C)C)C1=O | > 42 µM (inactive)
CC(=O)NC(CC(C)C)C(=O)NC(CO)C(=O)NC(CCC(=O)O)C(=O)NC(C)C(=O)NC(CC(C)C)C(N)=O (stereo unspecified) (Ac-LSEAL-NH2; configuration not given here) | > 42 µM (inactive)
COc1ccc2c(c1)[C@H]1[C@H](CO2)[C@H](c2ccccc2)[C@]2(C)C(=O)Nc3ccc(F)cc3C(=O)N12 | > 42 µM (inactive)
Cc1nc(N/N=C\c2ccc3c(c2)OCO3)sc1C | > 42 µM (inactive)
Cc1ccc(C(C(=O)NC2CCCCC2)N(CCC(C)C)C(=O)CNC(=O)c2ccco2)o1 (stereo unspecified) | > 42 µM (inactive)
CC(=O)NCCc1nc2cc(NC(=O)c3ccc(F)cc3)ccc2n1C | > 42 µM (inactive)
O=C1C2CCCN2C(=S)N1C1CCCCC1 (stereo unspecified) | > 42 µM (inactive)
CNc1csc(C)c(C)c1=O | > 42 µM (inactive)

SMILES | AC50
CC(C)C(=O)Nc1ccc(-c2nc3cccnc3o2)cc1 | > 42 µM (inactive)
CCCc1cc(=S)n2c([nH]c3ccccc32)c1C#N | > 42 µM (inactive)
O=C(Nc1nccs1)C1CCN(S(=O)(=O)c2ccc(Cl)c(C(F)(F)F)c2)CC1 | > 42 µM (inactive)
Cc1ccc(C)n1-n1cnc2sc3c(c2c1=O)CCCCC3 | > 42 µM (inactive)
S=C(c1ccc(N2CCOCC2)cc1)N1CCCCC1 | > 42 µM (inactive)
COCCn1c(-c2ccc(Cl)cc2)cnc1SCC(=O)NCCc1ccc(OC)c(OC)c1 | > 42 µM (inactive)
CCn1c(N2CCN(C(=O)C34CC5CC(CC(C5)C3)C4)CC2)nc2ccccc21 | > 42 µM (inactive)
O=C1NC2(CCCCC2)NN1c1ccccc1 | > 42 µM (inactive)
S=C(Nc1ccc(Cl)cc1)N1CCN(Cc2ccccc2)CC1 | > 42 µM (inactive)
O=C(COc1cnc2ccccc2n1)NCCC1=CCCCC1 | > 42 µM (inactive)
COCCCNC(=O)c1cc2cc([N+](=O)[O-])cc(OC)c2oc1=O | > 42 µM (inactive)
COCCn1c(N)c(N(Cc2ccccc2)C(=O)CN2C(=O)NC(C)(c3ccccc3)C2=O)c(=O)[nH]c1=O (stereo unspecified) | 39.8 µM
CN(C)C(=O)CNC(=O)C1CCCCC1 | > 42 µM (inactive)
Cc1cccc(C)c1NC(=O)C(Cl)C(=O)c1ccccc1 (stereo unspecified) | > 42 µM (inactive)
Cc1cc(NC(=O)c2ccc3c(c2)C(=O)N(C(C)(C)C)C3=O)no1 | > 42 µM (inactive)
Cc1cc(C)cc(-n2ncc3c2CCCC3NC(=O)c2cc(C)[nH]n2)c1 (stereo unspecified) | > 42 µM (inactive)
O=S(=O)(NCCN1CCCC1)c1cccc2cccnc12 | > 42 µM (inactive)
Cc1nc(N)c(Cc2ccccc2F)c(N)n1 | > 42 µM (inactive)
COc1cc2c(cc1OC)CN(C(=O)Cc1c(F)cccc1Cl)CC2 | > 42 µM (inactive)
Cc1ccc(S(=O)(=O)N2c3ccc(S(N)(=O)=O)cc3CC2C)cc1 (stereo unspecified) | > 42 µM (inactive)
COCCNC(=O)NC(=O)CSc1nc(C)c(C)c(C)n1 | > 42 µM (inactive)
O=C(Nc1ccc(Cl)cc1)N1CCC(c2nc(-c3ccc(F)cc3)no2)CC1 | > 42 µM (inactive)
CC(=O)c1cc(C)ccc1OC(=O)c1ccco1 | > 42 µM (inactive)
COCC(=O)n1nc(-c2ccc(Cl)cc2)nc1NCc1ccc(F)cc1 | > 42 µM (inactive)
CC(=O)c1cccc(NC(=O)CN(c2cccc(F)c2)S(C)(=O)=O)c1 | > 42 µM (inactive)
COc1cc(C(=O)COC(=O)c2cc([N+](=O)[O-])ccc2N2CCOCC2)ccc1OC(F)F | > 42 µM (inactive)

SMILES | AC50
Cc1cccc(NC(=S)NCc2ccco2)c1C | > 42 µM (inactive)
CC(=O)N(C)c1ccc(N2CCOCC2)c2c1C(=O)c1ccccc1C2=O | > 42 µM (inactive)
O=C(CP(=O)(c1ccccc1)c1ccccc1)N1CCOCC1 | > 42 µM (inactive)
CC(C)C/C(=N/O)c1c[nH]c2ccccc12 | > 42 µM (inactive)
Cc1[nH]oc(=O)c1N=Nc1ccccc1 | > 42 µM (inactive)
CCOCCCNC(=O)C(c1ccc(OC)cc1)N(Cc1ccc2c(c1)OCO2)C(=O)CNC(C)=O (stereo unspecified) | > 42 µM (inactive)
CC(C)CN(C(=O)COC(=O)c1ccc2c(c1)OCO2)c1c(N)n(Cc2ccccc2)c(=O)[nH]c1=O | > 42 µM (inactive)
COc1ccccc1CNC(=O)C1CCC(=O)N1C(C)C (stereo unspecified) | > 42 µM (inactive)
COc1ccc(N2CCN(C(=O)C3CCCN(S(=O)(=O)c4ccc5c(c4)oc(=O)n5C)C3)CC2)cc1 (stereo unspecified) | > 21 µM (inactive)
Cc1cc(C(F)F)n2ncc(C(=O)NCCc3ccc(Cl)cc3)c2n1 | > 42 µM (inactive)
COc1ccc(NC(=O)CN2C(=O)c3ccccc3S2(=O)=O)cc1OC | > 42 µM (inactive)
O=C(O)/C=C/c1cccnc1 | > 42 µM (inactive)
CC(C)Oc1ccc(C2(C#N)CC[N+](C)(C)CC2)cc1 | > 42 µM (inactive)
O=C(NC1CCCCC1)C(c1ccncc1)N(Cc1ccc2c(c1)OCO2)C(=O)C(F)(F)F (stereo unspecified) | > 42 µM (inactive)
CCOc1ccccc1Nc1nnc(SCc2nnc(-c3cc(OC)c(OC)c(OC)c3)o2)s1 | > 42 µM (inactive)
O=C(CCn1cnnn1)Nc1ccc(Cl)cc1Cl | > 42 µM (inactive)
OC1CN=C2CCCc3c2n(c2ccc(Cl)cc32)C1 (stereo unspecified) | > 42 µM (inactive)
COCCn1c(SCc2ccc(Cl)cc2)nc2c1c(=O)[nH]c(=O)n2C | > 42 µM (inactive)
O=S(=O)(NCC1CCCN(Cc2ccccc2O)C1)c1cccc2cccnc12 (stereo unspecified) | > 42 µM (inactive)
Cc1nc(SCC(=O)O)n[nH]1 | > 42 µM (inactive)
COc1ccc(C2=C(N)c3ccccc3C2=O)cc1 | > 42 µM (inactive)
COc1ccc(CN2CCNC(=O)C2CC(=O)NCc2cn3ccc(C)cc3n2)c(OC)c1 (stereo unspecified) | > 42 µM (inactive)
CCN(CC)c1nc(Nc2ccc(Cl)cc2)nc(OCC#N)n1 | > 42 µM (inactive)
